Experimental data as given in ChEMBL document CHEMBL2069281, “2-Phenylamino-6-cyano-1H-benzimidazole-based isoform selective casein kinase 1 gamma (CK1γ) inhibitors” (Bioorg Med Chem Lett, 2012).

Experiment: Clearance in rat at […], iv
Assay type: ADME, organism-based
Parameters: dose 0.58 mg/kg, route intravenous
Conditions: in vivo

CC(C)(C)c1ccc(Nc2nc3ccc(C#N)cc3[nH]2)cc1
clearance: 108 mL/min/kg
